{
  "source": "paper PMC2360547",
  "about": "(British Journal of Cancer, 2006)",
  "system": "PKC",
  "method": "Tumour biopsies were immediately frozen in liquid nitrogen and stored at −70°C until analysis. Heparinised blood (10 ml) was collected predose and at day 28.\nTumours were powdered in liquid nitrogen and homogenised on ice using an Ultra-Turrax in a buffer containing 20 mM HEPES, pH 7.4, 2 mM EDTA, 25 mM β-glycerophosphate, 0.2 mM DTT, 10 μg ml^−1 leupeptin, 10 μg ml^−1 aprotinin, 1 μg ml^−1 pepstatin, 1 μM sodium orthovanadate and 0.5 mM PMSF. Extracts were then sonicated in an ice cold sonicating bath for 5 min before centrifugation at 1000 g for 5 min to remove cellular debris. Supernatants were centrifuged at 50 000 g for 15 min to separate cytosolic (supernatant) and particulate (pellet) fractions. The supernatant was kept as ‘cytosolic’ fraction. The pellet was further extracted by resuspension in the original lysis buffer including 1% NP-40. Following sonication for 5 min on ice, the extract was centrifuged at 50 000 g for 15 min. The supernatant from this spin (which derived from the original pellet) was kept as the ‘particulate’ fraction. All steps were performed at 4°C or on ice.\nThe protein concentrations of the cytosolic and particulate fractions were measured after TCA precipitation using the Dc protein assay kit (Bio-Rad).\nIntratumoral total PKC activity was measured in cytosolic and particulate fractions using protamine sulphate as the substrate, following the method of a validated assay ([Budworth and Gescher, 1995]). The PKC assay was performed with 4–5 μl of the cytosol or particulate extract (2–50 μg protein) in a total reaction volume of 200 μl, including 200 μg ml^−1 protamine sulphate, 150 μM (γ-^32P)ATP (200 c.p.m. pmol^−1) in a buffer containing 20 mM Tris-HCl, pH 7.4, 10 mM magnesium acetate and 0.5 mM EGTA. The reaction was terminated after 6–7 min (30°C) by spotting 35 μl of the mix onto P81 phosphocellulose paper, followed by washing in 75 mM phosphoric acid. Bound, phosphorylated protamine sulphate was quantitated by scintillation counting of the phosphocellulose papers. Protein kinase C activity was determined by phosphate incorporation into protamine sulphate and expressed as picomolar of phosphate transferred min mg^−1 protein. Measurements were performed in triplicate. Each patient's pretreatment and day 28 biopsies were processed together and analysed in the same assay run. Up to six patients’ samples could be analysed in one day to minimise interassay variability.",
  "key": {"[1]": {"conditions": "one patient resistant to midostaurin with abundance of PKCξ"}},
  "note": "Read-outs that look alike come from different tables or passages of the source.",
  "data": [
    {"smiles": "CO[C@@H]1[C@H](N(C)C(=O)c2ccccc2)C[C@H]2O[C@]1(C)n1c3ccccc3c3c4c(c5c6ccccc6n2c5c31)C(=O)NC4", "note": "[Midostaurin, N-benzoyl-staurosporine]", "values": [
      {"measurement": "Effect on phosphorylation of protamine sulphate", "setting": "10 μM added to melanoma biopsies from nontrial patients", "value": "inhibited phosphorylation"},
      {"measurement": "Reduction of cytosolic PKC activity compared to pretreatment biopsy", "setting": "day 28 tumour biopsy, in seven out of nine patients", "value": "7–91%"},
      {"measurement": "Change of cytosolic PKC activity", "setting": "[1]", "value": "unchanged"},
      {"measurement": "Increase in particulate PKC activity", "setting": "[1]", "value": 65, "unit": "%"},
      {"measurement": "Percentage of total PKC activity present in the particulate fraction", "setting": "patient 10, day 28 (day 0: 19.1%)", "value": 15.4, "unit": "%"},
      {"measurement": "Percentage of total PKC activity present in the particulate fraction", "setting": "patient 11, day 28 (day 0: 15.7%)", "value": 11.1, "unit": "%"}
    ]}
  ]
}
